One compound from patent US12473583B2, “Use of guar gum, fluorescence-enhanced gold nanocluster, method for detecting alpha-glucosidase, and method for screening alpha-glucosidase inhibitor” (priority 2022, dated 2025) can be followed below.

The assay has as its target α-glucosidase (α-Glu). The experiment in a line: Screening of α-Glu inhibitors by fluorescence detection with guar gum-gold nanocluster-Fe3+ mixed dispersion (AAG substrate). It is filed as biochemical. Conditions: read from calibration curve of inhibitory efficiency vs concentration; third incubation 37° C. for 40 min, PBS pH=7.0, AAG substrate; fluorescence at 610 nm; read-out: IC50 (concentration of the inhibitor required to inhibit 50% α-Glu activity).

From the text: The present disclosure further provides a method for screening an α-Glu inhibitor, including the following steps: • providing a fluorescence-enhanced gold nanocluster-Fe^3+ mixed dispersion, where a fluorescence-enhanced gold nanocluster in the fluorescence-enhanced gold nanocluster-Fe^3+ mixed dispersion is the fluorescence-enhanced gold nanocluster in the above technical solution; • mixing an α-Glu inhibitor solution to be tested, an α-Glu solution, an AAG solution, and a PBS, and conducting third incubation to obtain a third incubation solution; • mixing the third incubation solution with the fluorescence-enhanced gold nanocluster-Fe^3+ mixed dispersion, and conducting fourth incubation to obtain a fourth incubation solution; and • subjecting the fourth incubation solution to fluorescence detection, and plotting a calibration curve of the α-Glu inhibitor to be tested according to a fluorescence emission intensity obtained by the fluorescence detection; according to the calibration curve of the α-Glu inhibitor to be tested, obtaining an IC50 of the α-Glu inhibitor to be tested to screen the α-Glu inhibitor. […]
In the present disclosure, the third incubation solution is mixed with the fluorescence-enhanced gold nanocluster-Fe^3+ mixed dispersion, and the fourth incubation is conducted to obtain the fourth incubation solution. […]

As for `COc1ccc([C@@H]2CC(=O)c3c(O)cc(O[C@@H]4O[C@H](CO[C@@H]5O[C@@H](C)[C@H](O)[C@@H](O)[C@H]5O)[C@@H](O)[C@H](O)[C@H]4O)cc3O2)cc1O` [hesperidin], the IC50 worked out at 101 µM.
